Chromatographic logP and log p data for 37 compounds are collected here from patent publication US6211214A, “Biphenyl ether oxazolines and their use as pest-control agents” (Bayer Aktiengesellschaft, priority 1995, dated 2001).

A short description of the data set: log p (partition coefficient octanol/water, determined experimentally from reversed phase HPLC). The data set is classed as physicochemical. The note with it: for chromatographic logP: reversed phase hplc. The text has this:
[log p=logarithm of the partition coefficient p of the substance between the solvents octanol and water, determined experimentally from reversed phase HPLC]

As usually defined, the chromatographic logP is a lipophilicity value derived from retention on a column. A low value points to lower lipophilicity.

Turning to `CCON=C(COc1ccc(-c2ccc(C3COC(c4c(F)cccc4F)=N3)cc2)cc1)c1cccc(Cl)c1` (centres unmarked) [Example 116], the chromatographic logP was 5.89 (A isomer) and 5.54 (B isomer).

Consider `Cc1cc(C(=O)COc2ccc(-c3ccc(C4COC(c5c(F)cccc5F)=N4)cc3)cc2)ccc1Cl` (centres unmarked) [Example 117], for which the chromatographic logP was found to be 4.86.

Consider `CCON=C(COc1ccc(-c2ccc(C3COC(c4c(F)cccc4F)=N3)cc2)cc1)c1ccc(Br)cc1` (centres unmarked) [Example 118], for which the chromatographic logP amounted to 5.65 (A isomer) and 5.57 (B isomer).

In the case of `CCON=C(COc1ccc(-c2ccc(C3COC(c4c(F)cccc4F)=N3)cc2)cc1)c1ccc(Br)cc1` (centres unmarked) [Example 119], the log p by setting is: (A isomer) 6.03; (B isomer) 5.72.

Turning to `C=CCON=C(C)C(C)Oc1ccc(-c2ccc(C3COC(c4c(F)cccc4Cl)=N3)cc2)cc1` (centres unmarked) [Example 120], the chromatographic logP by setting is: (A isomer) 5.7; (B isomer) 5.81.

As to `CON=C(COc1ccc(-c2ccc(C3COC(c4c(F)cccc4F)=N3)cc2)cc1)c1cccc(C(F)(F)F)c1` (centres unmarked) [Example 121], the chromatographic logP is, setting by setting: (A isomer) 5.8; (B isomer) 4.49.

Consider `CCON=C(COc1ccc(-c2ccc(C3COC(c4c(F)cccc4F)=N3)cc2)cc1)c1cccc(C(F)(F)F)c1` (centres unmarked) [Example 122], for which the chromatographic logP (A isomer) stood at 6.18 and the chromatographic logP (B isomer) was found to be 5.87.

Regarding `CC(=NOC(C)C)C(C)Oc1ccc(-c2ccc(C3COC(c4c(F)cccc4Cl)=N3)cc2)cc1` (centres unmarked) [Example 123], the chromatographic logP runs as follows: (A isomer) 6.15; (B isomer) 6.3.

`CC(COc1ccc(-c2ccc(C3COC(c4c(F)cccc4Cl)=N3)cc2)cc1)=NOC(C)C` (centres unmarked) [Example 124]: the chromatographic logP runs as follows: (A isomer) 5.78; (B isomer) 5.88.

For the compound `C=CCON=C(C)COc1ccc(-c2ccc(C3COC(c4c(F)cccc4Cl)=N3)cc2)cc1` (centres unmarked) [Example 125], the chromatographic logP was 5.04 (A isomer) and 5.11 (B isomer).

With `CC(COc1ccc(-c2ccc(C3COC(c4c(F)cccc4Cl)=N3)cc2)cc1)=NOCc1ccccc1` (centres unmarked) [Example 126], the chromatographic logP amounted to 5.45 (A isomer) and 5.53 (B isomer).

As for `CON=C(C)C(C)Oc1ccc(-c2ccc(C3COC(c4c(F)cccc4F)=N3)cc2)cc1Cl` (centres unmarked) [Example 127], the chromatographic logP reads like this: (A isomer) 5.06; (B isomer) 5.15.

Turning to `CON=C(COc1ccc(-c2ccc(C3COC(c4c(F)cccc4F)=N3)cc2)cc1)c1ccc(Cl)cc1` (centres unmarked) [Example 130], the chromatographic logP was found to be 5.27 (A isomer) and 5.54 (B isomer).

As for `CCON=C(COc1ccc(-c2ccc(C3COC(c4c(F)cccc4F)=N3)cc2)cc1)c1ccc(Cl)cc1` (centres unmarked) [Example 131], the chromatographic logP is 5.61 (A isomer) and 5.54 (B isomer).

Consider `O=C(COc1ccc(-c2ccc(C3COC(c4c(F)cccc4F)=N3)cc2)cc1)c1cc(Cl)ccc1Cl` (centres unmarked) [Example 132], for which the chromatographic logP worked out at 4.78.

On to `CON=C(COc1ccc(-c2ccc(C3COC(c4c(F)cccc4F)=N3)cc2)cc1)c1ccc(C)cc1` (centres unmarked) [Example 133], for which the chromatographic logP runs as follows: (A isomer) 5.07; (B isomer) 5.35.

With `CCON=C(COc1ccc(-c2ccc(C3COC(c4c(F)cccc4F)=N3)cc2)cc1)c1ccc(C)cc1` (centres unmarked) [Example 134], the chromatographic logP is 5.42 (A isomer) and 5.71 (B isomer).

Take `CC(COc1ccc(-c2ccc(C3COC(c4ccccc4Cl)=N3)cc2)cc1)=NOC(C)C` (centres unmarked) [Example 135]: the chromatographic logP runs as follows: (A isomer) 5.53; (B isomer) 5.61.

For `CC(=NOC(C)C)C(C)Oc1ccc(-c2ccc(C3COC(c4ccccc4Cl)=N3)cc2)cc1` (centres unmarked) [Example 136], the chromatographic logP by setting is: (A isomer) 5.88; (B isomer) 6.02.

`CC(COc1ccc(-c2ccc(C3COC(c4ccccc4Cl)=N3)cc2)cc1)=NOCc1ccccc1` (centres unmarked) [Example 137] yielded a chromatographic logP (A isomer) of 5.55 and a chromatographic logP (B isomer) of 5.62.

Consider `CON=C(COc1ccc(-c2ccc(C3COC(c4c(F)cccc4F)=N3)cc2)cc1)c1ccc(C(F)F)cc1` (centres unmarked) [Example 138], for which the chromatographic logP amounted to 4.78 (A isomer) and 4.98 (B isomer).

Turning to `CCON=C(COc1ccc(-c2ccc(C3COC(c4c(F)cccc4F)=N3)cc2)cc1)c1ccc(C(F)F)cc1` (centres unmarked) [Example 139], the chromatographic logP was determined as 5.07 (A isomer) and 5.31 (B isomer).

Regarding `CON=C(COc1ccc(-c2ccc(C3COC(c4c(F)cccc4F)=N3)cc2)cc1)c1ccc(Cl)c(C)c1` (centres unmarked) [Example 140], the chromatographic logP runs as follows: (A isomer) 5.57; (B isomer) 5.88.

As to `CCON=C(COc1ccc(-c2ccc(C3COC(c4c(F)cccc4F)=N3)cc2)cc1)c1ccc(Cl)c(C)c1` (centres unmarked) [Example 141], the chromatographic logP was found to be 5.93 (A isomer) and 6.23 (B isomer).

`C=CCON=C(C)COc1ccc(-c2ccc(C3COC(c4ccccc4Cl)=N3)cc2)cc1` (centres unmarked) [Example 142]: the chromatographic logP (A isomer) turned out to be 5.12 and the chromatographic logP (B isomer) amounted to 5.2.

Consider `C=CCON=C(C)C(C)Oc1ccc(-c2ccc(C3COC(c4ccccc4Cl)=N3)cc2)cc1` (centres unmarked) [Example 143], for which the chromatographic logP is, setting by setting: (A isomer) 5.45; (B isomer) 5.57.

The compound `CCON=C(C)C(C)Oc1ccc(-c2ccc(C3COC(c4ccccc4Cl)=N3)cc2)cc1Cl` (centres unmarked) [Example 144] came in with a chromatographic logP (A isomer) of 5.83 and a chromatographic logP (B isomer) of 6.01.

Consider `CC(=NOC(C)C)C(C)Oc1ccc(-c2ccc(C3COC(c4ccccc4Cl)=N3)cc2)cc1Cl` (centres unmarked) [Example 145], for which the chromatographic logP runs as follows: (A isomer) 6.3; (B isomer) 6.44.

As to `CC(=NOC(C)C)C(C)Oc1ccc(-c2ccc(C3COC(c4c(F)cccc4F)=N3)cc2)cc1Cl` (centres unmarked) [Example 146], the chromatographic logP (A isomer) turned out to be 5.87 and the chromatographic logP (B isomer) was 6.

Consider `C=CCON=C(C)C(C)Oc1ccc(-c2ccc(C3COC(c4c(F)cccc4F)=N3)cc2)cc1Cl` (centres unmarked) [Example 147], for which the chromatographic logP reads like this: (A isomer) 5.49; (B isomer) 5.58.

With `Cc1ccc(C(=O)COc2ccc(-c3ccc(C4COC(c5c(F)cccc5F)=N4)cc3)cc2)cc1C` (centres unmarked) [Example 148], the chromatographic logP was determined as 4.62.

Take `CON=C(COc1ccc(-c2ccc(C3COC(c4c(F)cccc4F)=N3)cc2)cc1)c1ccc(OC)cc1` (centres unmarked) [Example 149]: the chromatographic logP is, setting by setting: (A isomer) 4.7; (B isomer) 4.91.

Take `CCON=C(COc1ccc(-c2ccc(C3COC(c4c(F)cccc4F)=N3)cc2)cc1)c1ccc(OC)cc1` (centres unmarked) [Example 150]: the chromatographic logP reads like this: (A isomer) 5.04; (B isomer) 5.27.

`CC(=O)C(C)(C)Oc1ccc(-c2ccc(C3COC(c4c(F)cccc4Cl)=N3)cc2)cc1` (centres unmarked) [Example 151] registered a chromatographic logP of 4.48.

`CC(=O)C(C)(C)Oc1ccc(-c2ccc(C3COC(c4ccccc4Cl)=N3)cc2)cc1` (centres unmarked) [Example 152] registered a chromatographic logP of 4.56.

On to `CC(=O)C(C)(C)Oc1ccc(-c2ccc(C3COC(c4c(F)cccc4F)=N3)cc2)cc1Cl` (centres unmarked) [Example 153], for which the chromatographic logP turned out to be 4.61.

For `CON=C(COc1ccc(-c2ccc(C3COC(c4c(F)cccc4F)=N3)cc2)cc1)c1ccc(CC(C)C)cc1` (centres unmarked) [Example 154], the chromatographic logP reads like this: (A isomer) 6.34; (B isomer) 6.05.
